Experiment [1] deals with EGFR (human) (UniProt P00533).
Experiment [2] addresses EGFR (human) (UniProt P00533). Conditions: hn5.

EGFR (human), sequence (P00533 whole entry, looked up): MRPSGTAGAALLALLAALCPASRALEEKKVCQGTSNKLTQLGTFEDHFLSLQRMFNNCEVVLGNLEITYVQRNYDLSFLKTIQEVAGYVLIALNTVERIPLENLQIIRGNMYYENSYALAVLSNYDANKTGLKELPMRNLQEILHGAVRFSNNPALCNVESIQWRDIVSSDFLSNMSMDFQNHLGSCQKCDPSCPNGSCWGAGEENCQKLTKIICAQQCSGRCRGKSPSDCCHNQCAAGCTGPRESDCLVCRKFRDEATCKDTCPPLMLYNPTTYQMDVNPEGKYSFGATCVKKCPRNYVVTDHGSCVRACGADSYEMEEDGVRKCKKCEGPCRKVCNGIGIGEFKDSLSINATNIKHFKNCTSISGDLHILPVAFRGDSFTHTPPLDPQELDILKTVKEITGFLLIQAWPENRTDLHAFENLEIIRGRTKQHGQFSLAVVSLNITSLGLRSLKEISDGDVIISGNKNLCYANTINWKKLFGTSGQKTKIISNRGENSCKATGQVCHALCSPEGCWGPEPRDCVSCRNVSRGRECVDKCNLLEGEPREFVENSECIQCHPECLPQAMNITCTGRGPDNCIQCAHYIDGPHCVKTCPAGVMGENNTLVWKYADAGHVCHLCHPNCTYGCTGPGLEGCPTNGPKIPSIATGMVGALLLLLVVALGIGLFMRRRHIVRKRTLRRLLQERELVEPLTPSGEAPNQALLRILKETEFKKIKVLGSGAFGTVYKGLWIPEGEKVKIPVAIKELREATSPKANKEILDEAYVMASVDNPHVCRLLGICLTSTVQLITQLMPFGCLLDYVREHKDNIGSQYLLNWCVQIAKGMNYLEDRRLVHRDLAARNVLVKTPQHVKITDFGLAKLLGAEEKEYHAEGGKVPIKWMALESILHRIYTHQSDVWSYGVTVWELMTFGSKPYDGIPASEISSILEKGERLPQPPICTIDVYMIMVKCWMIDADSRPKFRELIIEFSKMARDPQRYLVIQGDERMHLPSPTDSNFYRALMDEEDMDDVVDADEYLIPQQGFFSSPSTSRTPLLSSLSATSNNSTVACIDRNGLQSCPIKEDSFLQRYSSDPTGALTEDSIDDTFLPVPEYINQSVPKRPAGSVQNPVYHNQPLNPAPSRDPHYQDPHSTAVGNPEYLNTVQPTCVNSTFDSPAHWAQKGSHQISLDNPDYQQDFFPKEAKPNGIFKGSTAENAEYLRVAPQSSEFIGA

In the case of `CN(CCO)c1cc2c(Nc3ccc4c(cnn4Cc4ccccc4)c3)ncnc2cn1`, the concentration for half-maximal inhibition (IC50) is 36 nM against EGFR (human) [1] and 300 nM against EGFR (human) [2].

For the molecule `CS(=O)(=O)CCNCc1ccc(-c2ccc3ncnc(Nc4ccc(S(=O)(=O)c5ccccc5)cc4)c3c2)o1`, the IC50 against EGFR (human) [1] was found to be 29 nM; against EGFR (human) [2], 1130 nM.

Turning to `Cc1nnc(-c2ccc3ncnc(Nc4ccc5c(cnn5Cc5cccc(F)c5)c4)c3c2)o1`, the IC50 against EGFR (human) [1] worked out at 26 nM; on EGFR (human) [2] it was 830 nM.

`CS(=O)(=O)CCNCc1ccc(-c2cc3c(Nc4ccc(OCc5ccccc5)cc4)ncnc3cn2)o1`: the figures for the IC50 at EGFR (human) [1] and at EGFR (human) [2] were 25 nM and 430 nM, respectively.

The record behind these values is the Kinase Knowledgebase extract (Sharma et al. 2016).
